# Measurements published in PubChem BioAssay AID1508591.
# Settings: rat; liver microsomes; pH 7.4; 15.0 min; 1.0 µM
row,SMILES,half-life [min]
1,CC(C)(C)OC(=O)N[C@@H](Cc1ccc(OS(=O)(=O)c2cccc3cnccc23)cc1)C(=O)N1CCCN(C(=O)OC(C)(C)C)CC1,2
2,CC(C)c1ccccc1-c1ncc(F)c(NCc2ccc(-c3cccnc3)s2)n1,2.8
3,COc1cccc2c1CCCC2CCCN1CCN(C2CCCCC2)CC1 (stereo not drawn),3.39
4,O=C1CCCC2=C1C(c1ccccc1C(F)(F)F)N=C(Nc1nc3ccccc3o1)N2 (stereo not drawn),10
5,CC(C)Oc1ccc(C(=O)Nc2ccc3c(c2)CCCN3C(=O)c2cccs2)cc1,4.8
6,CCCCn1cnc2cc(NC(=O)c3cc(OC)c(OC)c(OC)c3)ccc21,> 30
7,COc1cccc(CNc2ccc(S(=O)(=O)Nc3cccs3)cc2)c1O,1.6
8,O=S(=O)(Nc1nccs1)c1ccc(NCc2cccc(O)c2)cc1,> 30
9,Cn1c(C(=O)NCCc2ccccn2)nc2nc(-c3ccccc3)c(Cl)cc21,7.82
10,Cc1ccc(C(=O)N2CCc3sc(C(=O)NC(C)c4ccccc4)cc3C2)cc1 (stereo not drawn),4.79
11,Cn1nnnc1Sc1ncnc2scc(-c3ccccc3F)c12,5.28
12,Cc1ccccc1C(=O)Nc1ccc2c(c1)CCCN2C(=O)c1cccs1,7.79
13,Cc1ccc(-c2ccc(CNc3nc(-c4ccccc4C(C)C)nc4ccccc34)cc2)cn1,8.23
14,COc1ccc(-c2cc(C(F)(F)F)nc(SCCC(=O)Nc3cc(C)ccc3O)n2)cc1,14.9
15,N#Cc1ccc(N2N=C3c4ccc(C(=O)O)cc4CC[C@@H]3[C@@H]2C2CCCC2)cc1Cl,> 30
16,Nc1cc(-c2nc(Nc3ccc(F)c(F)c3)c3ccccc3n2)ccn1,15
17,Cc1nnc(-c2ccccc2C(C)C)nc1NCc1ccc(-c2cccnc2)cc1,5.8
18,COc1ccc2oc(NC3=NC(c4[nH]ncc4Cl)C4=C(CCCC4=O)N3)nc2c1 (stereo not drawn),14.2
19,Cc1ccc(C)n1-c1cccc(C(=O)O)c1,12
20,COc1cc2c(cc1-c1c(C)noc1C)ncc1[nH]c(=O)n([C@H](C)c3ccccn3)c12,> 30
21,CC[C@H](NC(=O)[C@H](C)NC)C(=O)N1C[C@@H](O)C[C@H]1Cc1c(-c2[nH]c3cc(F)ccc3c2C[C@H]2C[C@H](O)CN2C(=O)[C@H](CC)NC(=O)[C@H](C)NC)[nH]c2cc(F)ccc12,> 30
22,CCN(CC)S(=O)(=O)c1ccc2oc(C(=O)Nc3ccc(Br)cc3F)c(C)c2c1,7.91
23,CCOC(=O)c1cnc2ccc(-c3cncc(NS(=O)(=O)c4ccccc4)c3)cn12,19
24,N[C@@H](Cc1cc(Br)c(O)c(Br)c1)C(=O)O,> 30
25,COc1ccc(NC(=O)c2ccc[nH]2)cc1S(=O)(=O)Nc1ccc(Br)cc1,7.44
26,Fc1cc(Nc2nc(-c3ccncc3)nc3ccccc23)ccc1-c1ccncc1,13

row,SMILES,half-life [min]
1,CCc1oc2ccccc2c1C(=O)c1cc(I)c(O)c(I)c1,13.7
2,O=C(Nc1ncc(Cc2ccccc2)s1)c1ccc(-c2cccc([N+](=O)[O-])c2)o1,> 30
3,COc1ccc(-n2nc(C3CCCN(C(=O)c4ccccc4)C3)[nH]c2=O)cc1 (stereo not drawn),> 30
4,COc1ccccc1CN1CCNc2cc(Nc3ccccc3)ncc2C1,1.21
5,CCOC(=O)C1=C(C)NC(=O)CC1C(=O)Nc1cc(Cl)cc(Cl)c1 (stereo not drawn),6.1
6,O=c1cc(-c2ccc(O)c(O)c2)oc2cc(O)cc(O)c12,> 30
7,O=C(Nc1ccc(Br)cc1)c1ccc(F)c(S(=O)(=O)NC2CCCCCC2)c1,3.66
8,Cn1ccc2c(C(=O)NCC3CCC(=O)N3)nc(-c3ccccc3C#N)cc21 (stereo not drawn),21.9
9,COc1ccc(C(=O)NC2CCN(c3cnn(CC4CC4)c(=O)c3)CC2)cc1,> 30
10,O=C(NCc1cccnc1)c1nc(-c2ccc(Cl)nc2)c2cnccn12,26.6
11,CC(C)c1ccc(-n2ncc3c(=O)n(CC(=O)Nc4cc(F)ccc4Cl)cnc32)cc1,20
12,CC(=O)O[C@H]1CC[C@]2(C)C(=CC[C@H]3[C@H]4C[C@H]5O[C@]6(CC[C@H](C)CN6)[C@H](C)[C@@H]5[C@]4(C)CC[C@@H]32)C1,1.58
13,O=C(Cc1ccc(-c2csc(Nc3ccc(F)cc3)n2)s1)N1CCOCC1,> 30
14,Fc1ccccc1-c1nc(NCc2ccc(-c3cccnc3)cc2)c2ccccc2n1,5.9
15,CCc1ccc(C2C(C(=O)Nc3ccccc3OC)=C(C)Nc3c(C(=O)Nc4ccc(C)cc4)cnn32)cc1 (stereo not drawn),2.75
16,FC(F)(F)Oc1cccc(Nc2nc(-c3ccncc3)nc3ccccc23)c1,19
17,CCN(CCN(C)C)C(=O)C1CCN(S(=O)(=O)c2c(C)noc2/C=C/c2ccccc2F)CC1,> 30
18,COc1ccc2c(c1)CN(C(=O)CCN1CCC(Cc3ccccc3)CC1)CCS2,2.27
19,CCC(CC)c1cc([C@H]2CN3CC[C@H]2C[C@@H]3CNC(=O)COc2ccccc2)nc(-c2ccncc2)n1,2.38
20,Nc1c(C(=O)Nc2ccc(Cl)cc2)sc2nc3c(cc12)N1CCC3CC1,24
21,COc1cc(Nc2nc(-c3ccncc3)nc3ccccc23)ccc1N1CCN(C)CC1,11
22,Nc1ncc(S(=O)(=O)N2CCN(c3ccccc3)CC2)cn1,1.3
23,CN(C)S(=O)(=O)c1cccc(NC(=O)c2ccc[nH]2)c1,10.5
24,Cc1ccc(S(=O)(=O)Nc2cnccc2C(=O)Nc2nc(-c3ccccc3)cs2)cc1,14.3
25,Nc1cc(CN2C(=O)c3ccccc3C2=O)cc(Cl)c1O,11.7
26,COc1ccccc1N1CCN(c2ccc3cc(S(=O)(=O)N4CCCCC4)ccc3n2)CC1,2.16

row,SMILES,half-life [min]
1,Cc1ccccc1OCC(O)CO (stereo not drawn),> 30
2,CCCCCNc1oc(-c2cccc3ccccc23)nc1C#N,2.1
3,O=C(Nc1ncc(Cc2ccc(C(F)(F)F)cc2)s1)c1cccc(-c2ccccc2)c1,> 30
4,CC(=O)Nc1cccc(-c2csc(Nc3cc(C)ccn3)n2)c1,> 30
5,O=C(Cc1ccc(O)cc1)N1CC(CNc2ccccc2)C2(C1)CN(c1ccccc1)C2 (stereo not drawn),9.42
6,CN1CCN(Cc2ccc(NC(=O)Cc3ccc(Oc4cc(NC(=O)C5CC5)ncn4)cc3)cc2C(F)(F)F)CC1,> 30
7,COC(=O)Nc1nc2ccc(C(=O)c3ccccc3)cc2[nH]1,> 30
8,CC(CCc1ccc(O)cc1)NCc1ccc(Cl)cc1Cl (stereo not drawn),1.7
9,Cn1ccc2c(C(=O)NCCC(N)=O)nc(-c3cccc(CO)c3)cc21,> 30
10,CNC(=O)C1CCN(C(=O)c2ccc(-c3ncc4cnc(-c5ccccc5)cn34)cc2)CC1,> 30
11,O=S(=O)(c1ccccc1)N1CCCCC1CCc1ccccc1 (stereo not drawn),2.32
12,COc1ccccc1CNc1ccc(S(=O)(=O)Nc2nccs2)cc1,2.8
13,COc1cc(-c2c(C#N)c(N)nc3c2c(C)nn3-c2ccc(F)cc2)ccc1O,> 30
14,Cc1ccc(S(=O)(=O)Nc2cnccc2C(=O)Nc2ccc(N3CCOCC3)cc2)cc1,23
15,COc1ccc(Nc2cc3c(nc2OC)nc(CCc2ccccc2)n3C)cn1,19.5
16,Cc1cc(NC(=O)c2ccc(NC(=O)Cc3ccc(Cl)c(Cl)c3)cc2)no1,22
17,COc1cccc(CNc2ccc(S(=O)(=O)Nc3cc(C)on3)cc2)c1O,> 30
18,CCOC(=O)c1ccc(NC2CCCCC2)c(N)c1,2.5
19,COc1cc(-c2csc(N3CCC(C(N)=O)CC3)n2)cc(OC)c1OC,> 30
20,COc1ccc(O)c2c(=O)c3c(OC)cc4c(c3oc12)C1C=COC1O4 (stereo not drawn),2.79
21,O=C(NCc1ccc(S(=O)(=O)c2cccc(C(F)(F)F)c2)cc1)c1cnc2[nH]ncc2c1,> 30
22,COc1cc(-c2cc3c(nc2-c2ccccc2)nc(C(=O)NC2CCN(C)CC2)n3C)ccn1,> 30
23,Cc1ccc(S(=O)(=O)Nc2ccccc2C(=O)Nc2ccc(-c3ccccc3)nn2)cc1,4
24,Cc1cc(CNC(=O)c2ccc3c(c2)n(CC2CC2)c(=O)n3C2CCCCC2)on1,12.4
25,NC(=O)C1CCN(c2nc(-c3ccccc3Br)cs2)CC1,2.86
26,COc1ccc(C)cc1NC(=O)c1cnc(-c2ccc(F)cc2)nc1-c1ccncc1,5.86

row,SMILES,half-life [min]
1,Nc1c(S(=O)(=O)c2cccs2)c2nc3ccccc3nc2n1Cc1ccccc1,1.27
2,COc1ccc(NC(=O)c2[nH]c(C)cc2C)cc1S(=O)(=O)Nc1ccc(Br)cc1,> 30
3,Cc1nn2c(c1-c1ccccc1Oc1ccccc1)N(Cc1ccccc1O)CCC2,1.76
4,COc1cc(C(=O)NC2CCCc3c2[nH]c2ccccc32)cc(OC)c1OC (stereo not drawn),11.8
5,CC(C)c1ccccc1-c1ncc(F)c(NCC2CCN(c3cccnc3)CC2)n1,3
6,O=c1c(-c2ccc(O)cc2)coc2cc(O)cc(O)c12,> 30
7,COc1ccc(NC(=O)c2[nH]c(C)c(C(C)=O)c2C)cc1S(=O)(=O)Nc1ccc(C#N)cc1,> 30
8,COc1ccccc1NS(=O)(=O)c1cccc(NC(=O)c2[nH]c(C)c(C(C)=O)c2C)c1,4.7
9,O=S(=O)(Nc1ccc(S(=O)(=O)Nc2nccs2)cc1)c1ccc2ccccc2c1,> 30
10,Cc1sc2ncnc(Sc3nnnn3-c3ccccc3)c2c1-c1ccccc1,1.5
11,Oc1ccc(CNc2cccc(F)c2F)c2cccnc12,6.35
12,CC1CCN(C(=O)c2ccc(-c3ccc(N4CCSCC4)nc3)cc2)CC1,1.52
13,COc1cc(=O)n2c(c1C(=O)N(C)Cc1cscn1)CCN(C(=O)c1ccc(C)cc1C)CC2,> 30
14,COc1ncc(-c2n[nH]c3c2CC(=O)N(c2ccccc2)C3)cn1,> 30
15,O=C(O)c1ccc(O)c2ncc(N3CCCN(CCc4cccc5ccccc45)CC3)cc12,> 30
16,CC(C)CC(C)NC(=O)c1noc(-c2ccc[nH]c2=O)n1 (stereo not drawn),> 30
17,Cc1nn2c(c1-c1ccccc1OCc1ccccc1)N(C(=O)Cc1ccc3c(c1)OCO3)CCC2,1.41
18,CCOc1ccc(CCNC(=O)c2cc3sccc3n2Cc2ccncc2)cc1OCC,1.6
19,Cc1ccc(-n2ncc(C(=O)NCCN3CCC(Cc4ccccc4)CC3)c2C2CCN(C(=O)OC(C)(C)C)CC2)cc1,9.29
20,CC(=O)Nc1ccc(-c2csc(N3CCC(C(N)=O)CC3)n2)cc1,> 30
21,Cn1c2cc(S(C)=O)sc2c2cnn(Cc3cccc(N)c3)c(=O)c21 (stereo not drawn),> 30
22,COc1ccc(C)cc1NS(=O)(=O)c1ccc(-c2cnc(C3CC3)o2)cc1,3.38
23,O=C1Nc2ccccc2C1Cc1cc(Cl)c(O)c(Cl)c1 (stereo not drawn),24
24,CN(C)C(=O)c1nc(-c2ccc(Cl)nc2)c2ccccn12,> 30
25,Cc1ccc(S(=O)(=O)Nc2cc(F)ccc2C(=O)Nc2nc(-c3ccccc3)cs2)cc1,5.6
